# Read-outs that look alike come from different tables or passages of the source.
# Columns and labels:
# [1] = tested on: green rice leafhoppers of the strain RN; assay: Test Example 4: dust test with 35 mesh metal gauze; format: in vivo, Nephotettix cincticeps
# Protocol: (§1) The test for insecticidal activity was performed by the following procedure. […] The dust of a test compound (pulverized by means of a shaking pulverizer made by Taira Kosakusho, Ltd.) was applied onto the tube contents at a prescribed rate by spraying from outside the metal gauze by means of a bell-jar duster. The dust of the test compound was prepared uniformly mixing 2 parts of the dust of the individual compound or 1 part each of the dusts of the mixture components (total 2 parts) and 98 parts of a carrier obtained by mixing talc and clay in equal volumes.
# [2] = tested on: resistant green rice leafhoppers (R); details: ratio of the resistant strain to the susceptible strain (LD50); 1440 min
# Protocol: (1) A 20-mg portion of a given test compound was weighed out and dissolved in 10 ml of acetone. The resultant solution was diluted at proper times with acetone.
# (2) With a micro-syringe, the acetone solution of the test compound was topically applied to the thoracic region of female green rice leafhoppers at a fixed dose of 0.2 μl per head.
# (3) The female green rice leafhoppers thus treated were placed in a plastic cup prepared in advance (measuring 7 cm in diameter and 3.5 cm in depth and containing rice seeds) and kept at a constant temperature of 26±1° C. After 24 hours' standing, the dead insects were counted.
# In the case of a mixed insecticide, the LD50 was shown as a total dosage.
# [3] = tested on: green rice leafhoppers of the strain RN; assay: Test Example 3: dust spray test (20 mesh metal gauze cylinder); format: in vivo, Nephotettix cincticeps; details: for mortality at 250 mg/cylinder / mortality at 100 mg/cylinder: 24 hr; for Effect of individual compound (RN), death ratio (%) (Table 9): dust, compound alone, RN strain
# Protocol: The insecticides in the form of dust were tested for insecticidal activity.
# as §1
# [4] = tested on: Culex pipiens pallens immunized against organophosphoric preparations, last larval state; assay: Test Example 9 (W.H.O. method): mosquito larvae test; format: in vivo; details: Culex pipiens, 24 h, read-out: Effect of compound used singly, LD50 (Table 16)
# Protocol: (1) An ethyl alcohol solution of each test compound was diluted with water to varying concentrations in the range of from 0.01 to 1.0 ppm.
# (2) A 200-ml portion of each solution of a different concentration was placed in a 300-ml beaker. Then 30 test insects were plunged into the solution and then removed.
# (3) The insects removed from the solution were kept in a greenhouse at a constant temperature of 25±1° C. for 24 hours. At the end of 24 hours of standing, a count was taken of the number of insects that had died by that time.
# The test described above was repeated twice or thrice.
# in vivo = details: mouse, po
# Protocol: Different amounts of the suspension were injected into the stomaches of test mice with a metal tube. For the test, male mice of the species ddY were used.
# [5] = tested on: cholinesterase (ChE), resistant strain; format: biochemical, green rice leafhopper, Nephotettix cincticeps; details: for Inhibition of Cholinesterase R/S (resistant ratio): ratio of the resistant strain to the susceptible strain (I50), 30 min; for IC50: resistant strain, 50% inhibition concentration, 30° C. 30 min with inhibitor, read-out: Inhibition of Cholinesterase I50 (M) R
# Protocol: After centrifuged (30,000 g, 10 min.), the supernatant was used as the source of ChE.
# (§2) (2) Inhibition: 1.0 ml of enzyme solution was incubated with 0.1 ml of inhibitor which diluted with acetone at 30° C. for 30 min. ((2) solution).
# (§3) (3) Determination of ChE activity: 1.0 ml of acetylthiochline (3.5/2×10^-2 M), 1.0 ml of DTNB (5,5'-dithiobis-2-nitrobenzoic acid, 2.5×10^-4 M) and 4.0 ml of phosphate buffer (1/15 M, pH 7.4) were added to the (2) solution and incubated at 30° C. for 10 min.
# [6] = biological target: cholinesterase (ChE), susceptible strain; assay: Inhibition of cholinesterase (acetylthiocholine method), susceptible strain enzyme; format: biochemical, green rice leafhopper, Nephotettix cincticeps; details: 50% inhibition concentration, 30° C. 30 min with inhibitor, read-out: Inhibition of Cholinesterase I50 (M) S
# Protocol: The activity of ChE was performed by the acethyethiocholine method [Ellman (1961), Biochemical Pharmacology 7: 88-95].
# […]. After centrifuged (30,000 g, 10 min.), the supernatant was used as the source of ChE.
# as §2
# as §3, with “min. After incubation, […] of eserine (2×10^-3 M) was added in order to stop the enzyme reaction and the optical density of the yellow solution was measured at 412 mμ on the spectrophotometer.” for “min.”
# [7] = 2% dust, 250 mg, read-out: Mortality (%) after 24 hr., 250 mg Spray (Table 7)
# [8] = 2% dust, 100 mg, read-out: Mortality (%) after 24 hr., 100 mg Spray (Table 7)
compound,measurement,setting,value
"CCC(C)c1ccccc1OC(=O)NC (stereo not drawn) [Compound 6, 2-sec-butylphenyl-N-methylcarbamate]",mortality at 100 mg,"[1]; Table 10, 35 mesh, 100 mg, 1 hr, read-out: Death ratio (%) 1 hr., Dusting amount 100 mg",0%
same,mortality at 100 mg,"[1]; Table 10, 35 mesh, 100 mg, 2 hrs, read-out: Death ratio (%) 2 hrs., Dusting amount 100 mg",0%
same,mortality at 100 mg,"[1]; Table 10, 35 mesh, 100 mg, 4 hrs, read-out: Death ratio (%) 4 hrs., Dusting amount 100 mg",0%
same,mortality at 100 mg,"[1]; Table 10, 35 mesh, 100 mg, 16 hrs, read-out: Death ratio (%) 16 hrs., Dusting amount 100 mg",0%
same,mortality at 100 mg,"[1]; Table 10, 35 mesh, 100 mg, 24 hrs, read-out: Death ratio (%) 24 hrs., Dusting amount 100 mg",0%
same,mortality at 250 mg,"[1]; Table 10, 35 mesh, 250 mg, 1 hr, read-out: Death ratio (%) 1 hr., Dusting amount 250 mg",0%
same,mortality at 250 mg,"[1]; Table 10, 35 mesh, 250 mg, 2 hrs, read-out: Death ratio (%) 2 hrs., Dusting amount 250 mg",0%
same,mortality at 250 mg,"[1]; Table 10, 35 mesh, 250 mg, 4 hrs, read-out: Death ratio (%) 4 hrs., Dusting amount 250 mg",0%
same,mortality at 250 mg,"[1]; Table 10, 35 mesh, 250 mg, 16 hrs, read-out: Death ratio (%) 16 hrs., Dusting amount 250 mg",0%
same,mortality at 250 mg,"[1]; Table 10, 35 mesh, 250 mg, 24 hrs, read-out: Death ratio (%) 24 hrs., Dusting amount 250 mg",0%
same,mortality at 500 mg,"[1]; Table 10, 35 mesh, 500 mg, 1 hr, read-out: Death ratio (%) 1 hr., Dusting amount 500 mg",0%
same,mortality at 500 mg,"[1]; Table 10, 35 mesh, 500 mg, 2 hrs, read-out: Death ratio (%) 2 hrs., Dusting amount 500 mg",0%
same,mortality at 500 mg,"[1]; Table 10, 35 mesh, 500 mg, 4 hrs, read-out: Death ratio (%) 4 hrs., Dusting amount 500 mg",0%
same,mortality at 500 mg,"[1]; Table 10, 35 mesh, 500 mg, 16 hrs, read-out: Death ratio (%) 16 hrs., Dusting amount 500 mg",0%
same,mortality at 500 mg,"[1]; Table 10, 35 mesh, 500 mg, 24 hrs, read-out: Death ratio (%) 24 hrs., Dusting amount 500 mg",0%
same,Insecticidal Activity R/S (resistant ratio),[2],28.4
same,mortality at 250 mg/cylinder,[3]; [7],10%
same,"Effect of individual compound (RN), death ratio (%) (Table 9)",[3],0%
"CCCNC(=O)Oc1ccccc1C(C)CC (stereo not drawn) [Compound 8, 2-sec-butylphenyl-N-n-propylcarbamate]",Insecticidal Activity R/S (resistant ratio),[2],1.2
same,mortality at 250 mg/cylinder,[3]; [7],80%
same,LC50,[4],> 1 µg/mL
"CCC(C)c1cccc(OC(=O)NC)c1 (stereo not drawn) [Compound 15, 3-sec-butylphenyl-N-methylcarbamate, reference compound]",Insecticidal Activity R/S (resistant ratio),[2],19.0
same,LD50 at 168 h,in vivo,87 mg/kg
CCCCNC(=O)Oc1cccc(C(C)CCC)c1 (stereo not drawn) [Compound 22],Inhibition of Cholinesterase R/S (resistant ratio),[5],0.1
same,IC50,[5],6.3e-06 M
same,Insecticidal Activity R/S (resistant ratio),[2],0.9
same,IC50,[6],5.1e-05 M
"CCc1cccc(OC(=O)NC)c1 [Compound 29, reference compound]",Inhibition of Cholinesterase R/S (resistant ratio),[5],41.4
same,IC50,[5],0.00012 M
same,Insecticidal Activity R/S (resistant ratio),[2],14.9
same,IC50,[6],2.9e-06 M
CCNC(=O)Oc1cccc(CC)c1 [Compound 30],Inhibition of Cholinesterase R/S (resistant ratio),[5],0.8
same,IC50,[5],0.00016 M
same,Insecticidal Activity R/S (resistant ratio),[2],1.7
same,IC50,[6],0.0002 M
C=CCNC(=O)Oc1cccc(C(C)(C)C)c1 [Compound 34],Inhibition of Cholinesterase R/S (resistant ratio),[5],0.3
same,IC50,[5],8.9e-06 M
same,Insecticidal Activity R/S (resistant ratio),[2],1.1
same,IC50,[6],2.6e-05 M
"CCCNC(=O)Oc1ccc(C)c(C)c1 [Compound 37, 3,4-dimethylphenyl-N-n-propylcarbamate]",Insecticidal Activity R/S (resistant ratio),[2],0.8
same,mortality at 100 mg/cylinder,[3]; [8],60%
same,mortality at 250 mg/cylinder,[3]; [7],90%
same,LC50,[4],> 1 µg/mL
"CCNC(=O)Oc1cc(C)cc(C)c1 [Compound 41, 3.5-dimethylphenyl-N-ethylcarbamate]",Inhibition of Cholinesterase R/S (resistant ratio),[5],0.7
same,IC50,[5],7.9e-05 M
same,Insecticidal Activity R/S (resistant ratio),[2],2.0
same,mortality at 100 mg/cylinder,[3]; [8],50%
same,mortality at 250 mg/cylinder,[3]; [7],70%
same,IC50,[6],0.00011 M
"CCCNC(=O)Oc1cc(C)cc(C)c1 [Compound 42, 3,5-dimethylphenyl-N-n-propylcarbamate]",Insecticidal Activity R/S (resistant ratio),[2],0.7
same,mortality at 100 mg/cylinder,[3]; [8],70%
same,mortality at 250 mg/cylinder,[3]; [7],95%
same,mortality at 100 mg/cylinder,"[3]; Table 8, dust 100 mg, read-out: Mortality (%) after 24 hr., Spray Volume 100 mg",70%
same,mortality at 250 mg/cylinder,"[3]; Table 8, dust 250 mg, read-out: Mortality (%) after 24 hr., Spray Volume 250 mg",95%
same,LC50,[4],> 1 µg/mL
"CNC(=O)Oc1cccc2ccccc12 [Compound 49, 1-naphthyl-N-methylcarbamate]",mortality at 100 mg,"[1]; 1 h, read-out: Death ratio (%) 1 hr., Dusting amount 100 mg",0%
same,mortality at 250 mg,"[1]; 1 h, read-out: Death ratio (%) 1 hr., Dusting amount 250 mg",0%
same,mortality at 500 mg,"[1]; 1 h, read-out: Death ratio (%) 1 hr., Dusting amount 500 mg",0%
same,mortality at 100 mg,"[1]; 2 h, read-out: Death ratio (%) 2 hrs., Dusting amount 100 mg",0%
same,mortality at 250 mg,"[1]; 2 h, read-out: Death ratio (%) 2 hrs., Dusting amount 250 mg",0%
same,mortality at 500 mg,"[1]; 2 h, read-out: Death ratio (%) 2 hrs., Dusting amount 500 mg",0%
same,mortality at 100 mg,"[1]; 4 h, read-out: Death ratio (%) 4 hrs., Dusting amount 100 mg",0%
same,mortality at 250 mg,"[1]; 4 h, read-out: Death ratio (%) 4 hrs., Dusting amount 250 mg",0%
same,mortality at 500 mg,"[1]; 4 h, read-out: Death ratio (%) 4 hrs., Dusting amount 500 mg",0%
same,mortality at 100 mg,"[1]; 16 h, read-out: Death ratio (%) 16 hrs., Dusting amount 100 mg",0%
same,mortality at 250 mg,"[1]; 16 h, read-out: Death ratio (%) 16 hrs., Dusting amount 250 mg",0%
same,mortality at 500 mg,"[1]; 16 h, read-out: Death ratio (%) 16 hrs., Dusting amount 500 mg",0%
same,mortality at 100 mg,"[1]; 24 h, read-out: Death ratio (%) 24 hrs., Dusting amount 100 mg",0%
same,mortality at 250 mg,"[1]; 24 h, read-out: Death ratio (%) 24 hrs., Dusting amount 250 mg",0%
same,mortality at 500 mg,"[1]; 24 h, read-out: Death ratio (%) 24 hrs., Dusting amount 500 mg",0%
same,"Effect of individual compound (RN), death ratio (%) (Table 9)",[3],0%
"CCCNC(=O)Oc1ccccc1OC(C)C [Compound 83, 2-isopropoxyphenyl-N-n-propylcarbamate]","death ratio (%), mixture with Compound No. 1","[3]; Table 9, dust mixed with 1, RN",80.0%
same,"death ratio (%), mixture with Compound No. 6*","[3]; Table 9, dust mixed with 6*, RN",95.0%
same,"death ratio (%), mixture with Compound No. 24*","[3]; Table 9, dust mixed with 24*, RN",82.5%
same,"death ratio (%), mixture with Compound No. 35*","[3]; Table 9, dust mixed with 35*, RN",100%
same,"death ratio (%), mixture with Compound No. 40*","[3]; Table 9, dust mixed with 40*, RN",82.5%
same,"death ratio (%), mixture with Compound No. 49*","[3]; Table 9, dust mixed with 49*, RN",50.0%
same,"death ratio (%), mixture with Compound No. 81*","[3]; Table 9, dust mixed with 81*, RN",100%
same,"death ratio (%), mixture with Compound No. 118*","[3]; Table 9, dust mixed with 118*, RN",95.0%
same,"death ratio (%), mixture with Carbofuran","[3]; Table 9, dust mixed with Carbofuran, RN",100%
same,"death ratio (%), mixture with Methomyl","[3]; Table 9, dust mixed with Methomyl, RN",100%
same,"Effect of individual compound (RN), death ratio (%) (Table 9)",[3],20.0%
same,LC50,[4],> 1 µg/mL
"CCCNC(=O)Oc1cc(C)c(N(C)C)c(C)c1 [Compound 120, 3,5-dimethyl-4-dimethylaminophenyl-N-n-propylcarbamate]",LD50 at 168 h,in vivo,30 to 300 mg/kg
same,mortality,in vivo; 30 mg/kg,0%
same,mortality,in vivo; 300 mg/kg,100%
"CCOC(=O)CC(SP(=S)(OC)OC)C(=O)OCC (stereo not drawn) [Malathion, S-[1,2-bis(ethoxycarbonyl)ethyl]dimethyl phosphorothiolothionate, reference compound]",LC50,[4],0.31 µg/mL

# Reference: patent US4226883A, “Carbamate derivatives and method for manufacture thereof” (priority 1974, dated 1980)
